The source made the active and inactive calls. The calls are words filed in the database; no cut-off is given here.
Key:
NCI-H929 [1] = test: Induction of apoptosis in human NCI-H929 cells assessed as early apoptotic cells at 42 nM after 48 hrs in presence of bortezomib by Annexin-V/propidium iodide staining based flow cytometric method (reference value: 17.1%); assay type: functional
NCI-H929 [2] = test: Induction of apoptosis in human NCI-H929 cells assessed as viable cells at 42 nM after 48 hrs by Annexin-V/propidium iodide staining based flow cytometric method (reference value: 82.6%); assay type: functional; details: NCI-H929, 48 h, read-out: Activity
[3] = target: T1, Prostaglandin G/H synthase 1 (Ovis aries, UniProt P05979); test: Inhibition of ovine COX1 using arachidonic acid as substrate by colorimetric assay
T1 sequence (P05979 whole entry): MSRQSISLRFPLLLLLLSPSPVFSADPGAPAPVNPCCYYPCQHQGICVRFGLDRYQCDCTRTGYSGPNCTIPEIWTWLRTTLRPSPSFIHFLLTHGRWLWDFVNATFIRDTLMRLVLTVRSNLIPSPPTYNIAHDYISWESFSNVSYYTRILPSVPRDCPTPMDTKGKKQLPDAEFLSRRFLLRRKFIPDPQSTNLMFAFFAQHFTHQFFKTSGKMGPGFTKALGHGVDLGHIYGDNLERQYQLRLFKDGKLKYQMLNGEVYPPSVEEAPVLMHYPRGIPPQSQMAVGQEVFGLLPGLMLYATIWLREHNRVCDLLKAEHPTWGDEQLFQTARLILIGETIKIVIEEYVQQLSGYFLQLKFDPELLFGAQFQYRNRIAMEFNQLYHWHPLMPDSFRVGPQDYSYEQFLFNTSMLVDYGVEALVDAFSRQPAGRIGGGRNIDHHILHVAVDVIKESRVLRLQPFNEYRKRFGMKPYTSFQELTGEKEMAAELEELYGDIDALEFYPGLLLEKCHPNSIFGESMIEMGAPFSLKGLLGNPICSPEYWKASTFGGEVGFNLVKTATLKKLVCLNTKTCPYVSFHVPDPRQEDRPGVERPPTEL

RPMI-8226 [4] = test: Cell cycle arrest in human RPMI8226 cells assessed as accumulation at S phase at 42 nM in presence of bortezomib after 48 hrs by propidium iodide/RNase staining based flow cytometric method relative to bortezomib; assay type: functional
NCI-H929 [5] = test: Cell cycle arrest in human NCI-H929 cells assessed as accumulation at S phase at 42 nM in presence of bortezomib after 48 hrs by propidium iodide/RNase staining based flow cytometric method relative to bortezomib alone; assay type: functional
RPMI-8226 [6] = test: Cell cycle arrest in human RPMI8226 cells assessed as accumulation at G0/G1 phase at 42 nM in presence of bortezomib after 48 hrs by propidium iodide/RNase staining based flow cytometric method relative to bortezomib; assay type: functional
RPMI-8226 [7] = test: Induction of apoptosis in human RPMI8226 cells assessed as necrotic cells at 42 nM after 48 hrs in presence of bortezomib by Annexin-V/propidium iodide staining based flow cytometric method (reference value: 0.090%); assay type: functional
NCI-H929 [8] = test: Cell cycle arrest in human NCI-H929 cells assessed as accumulation at G0/G1 phase at 42 nM in presence of bortezomib after 48 hrs by propidium iodide/RNase staining based flow cytometric method relative to bortezomib alone; assay type: functional
[9] = Genotoxicity in Escherichia coli PQ37 at 500 uM after overnight incubation by SOS chromotest; assay type: toxicity
NCI-H929 [10] = test: Induction of apoptosis in human NCI-H929 cells assessed as necrotic cells at 42 nM after 48 hrs by Annexin-V/propidium iodide staining based flow cytometric method (reference value: 0.0034%); assay type: functional
NCI-H929 [11] = test: Induction of apoptosis in human NCI-H929 cells assessed as necrotic cells at 42 nM after 48 hrs in presence of bortezomib by Annexin-V/propidium iodide staining based flow cytometric method (reference value: 0.0034%); assay type: functional

IC50 [3]: 42 nM
SMILES: C=Cc1onc(-c2ccc(OC)cc2)c1-c1ccc(OC)cc1
Activity (NCI-H929 [1]): 60.6%
viability at 0.042 µM (NCI-H929 [2]): 83%
Activity (RPMI-8226 [4]): Active
Activity (NCI-H929 [5]): 15%
Activity (RPMI-8226 [6]): Active
Activity (RPMI-8226 [7]): 0.01%
Activity (NCI-H929 [8]): 15%
Activity [9]: Non-Toxic
Activity (NCI-H929 [10]): 0.012%
Activity (NCI-H929 [11]): 0%

Source: ChEMBL document CHEMBL4422618, “Translational impact of novel widely pharmacological characterized mofezolac-derived COX-1 inhibitors combined with bortezomib on human multiple myeloma cell lines viability” (Eur J Med Chem, 2019)
